Measurements: patent US20240360122A1, “POLYMORPHIC FORMS AND SALTS OF A GLP-1R AGONIST” (Terns (Suzhou) Biotechnology Co., Ltd., priority 2023, published 2024)

Legend:
Type in all cases: physicochemical
[1] = Kinetic solubility in water and bio-relevant media (SGF, FaSSIF, FeSSIF) at 37° C.; conditions: for FC: Form change: residual solids by XRPD
Description: Add 4 mL of medium (H2O, SGF, FaSSIF and FeSSIF). • Rolled at 37° C. (˜25 rpm). Sampling at 1, 2, 4 and 24 hrs. • At each time-point, sampled 0.8 mL of solution or suspension into a centrifuge tube prior to centrifugation (12000 rpm, 37° C., 5 min) and filtration through 0.45 μm PTFE membrane. • Tested pH and concentration for the filtrate. Analyze residual solids by XRPD.
0.1 g of NaCl and 0.05 g of Triton X-100 were weighed into a 50-mL volumetric flask. Purified water was added to dissolve the solid. 67.5 μL HCl (38%, 12M) was added after the solid was dissolved completely. pH was then adjusted to 1.8 using HCl (1 M) or NaOH (1 M). Purified water was added to the volume.
0.17 g of anhydrous NaH2PO4, 0.021 g of NaOH and 0.31 g of NaCl were weighed into a 50-mL volumetric flask. ˜48 mL purified water was added to dissolve the solid. pH was adjusted to 6.5 using 1M HCl or 1M NaOH. Purified water was then added to the volume. 0.11 g of SIF powder was added into the volumetric flask.
0.41 mL of acetic acid, 0.20 g of NaOH and 0.59 g of NaCl were weighed into a 50-mL volumetric flask. ˜48 mL purified water was added to dissolve the solid. pH was adjusted to 5.0 using 1M HCl or 1M NaOH. Purified water was then added to the volume. 0.56 g of SIF powder was added into the volumetric flask.

[2] = Hygroscopicity by DVS at 25° C.
Description: DVS was measured via a SMS (Surface Measurement Systems) DVS Intrinsic. The relative humidity at 25° C. were calibrated against deliquescence point of LiCl, Mg(NO3)2 and KCl.

[3] = Solid state stability at 25° C./60% RH and 40° C./75% RH for 1 week; conditions: for HPLC peak Area, RRT 1.00: main peak
Description: Each sample was added into a glass vial, sealed by parafilm with several holes, and kept under tested conditions. After one week, samples were taken for XRPD and HPLC purity test.

Structure (SMILES): N#Cc1ccc(COc2cccc(C3CCN(Cc4nc5ccc(C(=O)O)cc5n4Cc4cncs4)CC3)n2)c(F)c1 [Fumarate Type A]
- FC: Form change ([1]; FaSSIF, 37° C., 1 hr): No
- FC: Form change ([1]; FaSSIF, 37° C., 2 hrs): No
- FC: Form change ([1]; FaSSIF, 37° C., 4 hrs): No
- FC: Form change ([1]; FaSSIF, 37° C., 24 hrs): No
- FC: Form change ([1]; FeSSIF, 37° C., 1 hr): No
- FC: Form change ([1]; FeSSIF, 37° C., 2 hrs): No
- FC: Form change ([1]; FeSSIF, 37° C., 4 hrs): No
- FC: Form change ([1]; FeSSIF, 37° C., 24 hrs): No
- FC: Form change ([1]; H2O, 37° C., 1 hr): No
- FC: Form change ([1]; H2O, 37° C., 2 hrs): No
- FC: Form change ([1]; H2O, 37° C., 4 hrs): No
- FC: Form change ([1]; H2O, 37° C., 24 hrs): No
- FC: Form change ([1]; SGF, 37° C., 1 hr): No
- FC: Form change ([1]; SGF, 37° C., 2 hrs): No
- FC: Form change ([1]; SGF, 37° C., 4 hrs): No
- FC: Form change ([1]; SGF, 37° C., 24 hrs): No
- form change of residual solids (XRPD) after solubility test ([1]; all the media (H2O, SGF, FaSSIF, FeSSIF), after 24 hrs): No form change
- solubility compared with the other selected salts ([1]; all the media, 37° C.): lowest solubility
- water uptake (DVS) ([2]; 25° C./80% RH): 0.12%
- hygroscopicity ([2]; DVS, 25° C.): non-hygroscopic
- Water uptake at 25° C./80% RH ([2]; DVS, 25° C./80% RH): 0.12 wt %
- For change after DVS ([2]; XRPD after DVS test): No
- form change after DVS test (XRPD) ([2]; after DVS test): no form change
- HPLC peak Area, RRT 0.73 ([3]; 25° C./60% RH, 1 week): 0.14%
- HPLC peak Area, RRT 0.80 ([3]; 25° C./60% RH, 1 week): 0.05%
- HPLC peak Area, RRT 0.83 ([3]; 25° C./60% RH, 1 week): 1.98%
- HPLC peak Area, RRT 0.90 ([3]; 25° C./60% RH, 1 week): 0.10%
- HPLC peak Area, RRT 0.99 ([3]; 25° C./60% RH, 1 week): 0.06%
- HPLC peak Area, RRT 1.05 ([3]; 25° C./60% RH, 1 week): 0.28%
- HPLC peak Area, RRT 1.10 ([3]; 25° C./60% RH, 1 week): 0.89%
- HPLC peak Area, RRT 1.12 ([3]; 25° C./60% RH, 1 week): 0.06%
- HPLC peak Area, RRT 1.15 ([3]; 25° C./60% RH, 1 week): 0.25%
- HPLC peak Area, RRT 1.34 ([3]; 25° C./60% RH, 1 week): 0.07%
- HPLC peak Area, RRT 1.00 ([3]; 25° C./60% RH, 1 week): 96.13%
- Form change ([3]; 25° C./60% RH/Open/1 week): No
- Purity ([3]; 25° C./60% RH/Open/1 week): 96.13 Area %
- solid-state stability: form change and purity decrease ([3]; 25° C./60% RH/open and 40° C./75% RH/open, 1 week): no form change or significant purity decrease
- HPLC peak Area, RRT 0.73 ([3]; 40° C./75% RH, 1 week): 0.13%
- HPLC peak Area, RRT 0.80 ([3]; 40° C./75% RH, 1 week): <0.05%
- HPLC peak Area, RRT 0.83 ([3]; 40° C./75% RH, 1 week): 1.89%
- HPLC peak Area, RRT 0.90 ([3]; 40° C./75% RH, 1 week): 0.09%
- HPLC peak Area, RRT 0.99 ([3]; 40° C./75% RH, 1 week): <0.05%
- HPLC peak Area, RRT 1.05 ([3]; 40° C./75% RH, 1 week): 0.29%
- HPLC peak Area, RRT 1.10 ([3]; 40° C./75% RH, 1 week): 0.87%
- HPLC peak Area, RRT 1.12 ([3]; 40° C./75% RH, 1 week): 0.05%
- HPLC peak Area, RRT 1.15 ([3]; 40° C./75% RH, 1 week): 0.26%
- HPLC peak Area, RRT 1.34 ([3]; 40° C./75% RH, 1 week): 0.06%
- HPLC peak Area, RRT 1.00 ([3]; 40° C./75% RH, 1 week): 96.37%
- Form change ([3]; 40° C./75% RH/Open/1 week): No
- Purity ([3]; 40° C./75% RH/Open/1 week): 96.37 Area %
- HPLC peak Area, RRT 0.73 ([3]; Initial): 0.13%
- HPLC peak Area, RRT 0.80 ([3]; Initial): <0.05%
- HPLC peak Area, RRT 0.83 ([3]; Initial): 1.91%
- HPLC peak Area, RRT 0.90 ([3]; Initial): 0.09%
- HPLC peak Area, RRT 0.99 ([3]; Initial): <0.05%
- HPLC peak Area, RRT 1.05 ([3]; Initial): 0.27%
- HPLC peak Area, RRT 1.10 ([3]; Initial): 0.87%
- HPLC peak Area, RRT 1.12 ([3]; Initial): 0.05%
- HPLC peak Area, RRT 1.15 ([3]; Initial): 0.24%
- HPLC peak Area, RRT 1.34 ([3]; Initial): 0.06%
- Purity ([3]; Initial): 96.37 Area %
- HPLC peak Area, RRT 1.00 ([3]; Initial): 96.37%
